From publication PMC9475448, “What a difference a methylene makes: replacing Glu with Asp or Aad in the Lys-urea-Glu pharmacophore of PSMA-targeting radioligands to reduce kidney and salivary gland uptake” (Theranostics, 2022)
Entries after “also recorded” stand apart in the source; their conditions may differ. Read-outs that look alike come from different tables or passages of the source.

Experiments:
LNCaP tumor-bearing mice [1] = assay: Ex vivo biodistribution of 177Lu-labeled ligands in LNCaP tumor-bearing NRG mice
LNCaP tumor-bearing mice [2] = assay: Longitudinal SPECT/CT imaging of 177Lu-labeled ligands; type: in vivo
Method: SPECT/CT imaging experiments were conducted using the MILabs (Utrecht, The Netherlands) U-SPECT-II/CT scanner. Each tumor-bearing mouse (n = 1-2 was injected with ∼37 MBq (50-250 pmol) of ^177Lu-labeled compound through a lateral caudal tail vein. The mice were imaged at 1, 4, 24, 72, and 120 h after injection. At each time point, a 5-min CT scan was conducted first for anatomical reference followed by 2 × 30-min static emission scans acquired in list mode.

LNCaP tumor-bearing mice [3] = assay: Radioligand therapy study in LNCaP tumor-bearing NRG mice
[4] = test system: LNCaP tumor and major mouse organs/tissues; assay: Radiation dosimetry calculation with OLINDA software from biodistribution data; conditions: 25-g mouse
Source text: The biodistribution data (available in the Supplemental Table s 5- 6) were used to determine the kinetics input values required by OLINDA. First, each of the values was decayed to its corresponding time point (the values on the table are shown at injection time). Then the different time-points of the uptake data (%IA/g) for each organ were fitted to both mono- exponential ( ) and bi-exponential ( ) functions using in-house software developed in Python. The best fit was selected based on maximizing the coefficient of determination (R2) of the fit and minimizing the residuals. The areas under the curves were analytically calculated based on the parameters obtained from the best fit of each organ and this provided the kinetic input values required by OLINDA.
In the mouse case, the adrenals, blood, fat, and muscle are not modeled in the phantom. These organs were grouped together and included in what OLINDA calls the remainder of the body .
Lastly, the numbers of decays in the tumors were also calculated based on the biodistribution data of the mice and the values were inputted into the sphere model available in OLINDA.

LNCaP tumor-bearing mice [5] = conditions: mouse, in vivo

O=C([O-])CN1CCN(CC(=O)[O-])CCN(CC(=O)NCC2CCC(C(=O)NC(Cc3c4ccccc4cc4ccccc34)C(=O)NCCCCC(NC(=O)NC(CCCC(=O)O)C(=O)O)C(=O)O)CC2)CCN(CC(=O)[O-])CC1.[177Lu+3] (stereo not drawn) [[^177Lu]Lu-HTK03149]
Tumor:Muscle uptake ratio (LNCaP tumor-bearing mice [1]; 24 h post-injection): 842 ± 216 | Tumor:Salivary gland uptake ratio (LNCaP tumor-bearing mice [1]; 24 h post-injection): 286 ± 88.4 | Adrenal glands uptake (LNCaP tumor-bearing mice [1]; 72 h post-injection): 0.124 ± 0.052 %IA/g | Blood uptake (LNCaP tumor-bearing mice [1]; 72 h post-injection): 0.067 ± 0.016 %IA/g | Blood:Salivary gland uptake ratio (LNCaP tumor-bearing mice [1]; 72 h post-injection): 1.45 ± 0.69 | Bone uptake (LNCaP tumor-bearing mice [1]; 72 h post-injection): 0.026 ± 0.011 %IA/g | Brain uptake (LNCaP tumor-bearing mice [1]; 72 h post-injection): 0.003 ± 0.002 %IA/g | Fat uptake (LNCaP tumor-bearing mice [1]; 72 h post-injection): 0.042 ± 0.042 %IA/g | Heart uptake (LNCaP tumor-bearing mice [1]; 72 h post-injection): 0.060 ± 0.014 %IA/g | Intestines uptake (LNCaP tumor-bearing mice [1]; 72 h post-injection): 0.088 ± 0.034 %IA/g | Kidneys uptake (LNCaP tumor-bearing mice [1]; 72 h post-injection): 0.679 ± 0.387 %IA/g | Lacrimal glands uptake (LNCaP tumor-bearing mice [1]; 72 h post-injection): 0.006 ± 0.007 %IA/g | Liver uptake (LNCaP tumor-bearing mice [1]; 72 h post-injection): 0.130 ± 0.034 %IA/g | Lungs uptake (LNCaP tumor-bearing mice [1]; 72 h post-injection): 0.108 ± 0.022 %IA/g | Muscle uptake (LNCaP tumor-bearing mice [1]; 72 h post-injection): 0.018 ± 0.003 %IA/g | Pancreas uptake (LNCaP tumor-bearing mice [1]; 72 h post-injection): 0.033 ± 0.002 %IA/g | Salivary glands uptake (LNCaP tumor-bearing mice [1]; 72 h post-injection): 0.051 ± 0.016 %IA/g | Stomach uptake (LNCaP tumor-bearing mice [1]; 72 h post-injection): 0.140 ± 0.104 %IA/g | Testes uptake (LNCaP tumor-bearing mice [1]; 72 h post-injection): 0.053 ± 0.008 %IA/g | Thyroid uptake (LNCaP tumor-bearing mice [1]; 72 h post-injection): 0.079 ± 0.008 %IA/g | Tumor uptake (LNCaP tumor-bearing mice [1]; 72 h post-injection): 17.1±4.70 %IA/g | Tumor:Blood uptake ratio (LNCaP tumor-bearing mice [1]; 72 h post-injection): 258 ± 74.7 | Tumor:Muscle uptake ratio (LNCaP tumor-bearing mice [1]; 72 h post-injection): 985 ± 342 | Tumor:Salivary gland uptake ratio (LNCaP tumor-bearing mice [1]; 72 h post-injection): 349 ± 109 | Tumor uptake (LNCaP tumor-bearing mice [1]; 72 h post-injection, listed as [177Lu]Lu-HTK03149): 17.12 ± 4.702 %IA/g | Adrenal glands uptake (LNCaP tumor-bearing mice [1]; 120 h post-injection): 0.024 ± 0.027 %IA/g | Blood uptake (LNCaP tumor-bearing mice [1]; 120 h post-injection): 0.021 ± 0.006 %IA/g | Blood:Salivary gland uptake ratio (LNCaP tumor-bearing mice [1]; 120 h post-injection): 0.75 ± 0.19 | Bone uptake (LNCaP tumor-bearing mice [1]; 120 h post-injection): 0.015 ± 0.007 %IA/g | Brain uptake (LNCaP tumor-bearing mice [1]; 120 h post-injection): 0.002 ± 0.001 %IA/g | Fat uptake (LNCaP tumor-bearing mice [1]; 120 h post-injection): 0.014 ± 0.009 %IA/g | Heart uptake (LNCaP tumor-bearing mice [1]; 120 h post-injection): 0.034 ± 0.014 %IA/g | Intestines uptake (LNCaP tumor-bearing mice [1]; 120 h post-injection): 0.069 ± 0.046 %IA/g | Kidneys uptake (LNCaP tumor-bearing mice [1]; 120 h post-injection): 0.276 ± 0.064 %IA/g | Lacrimal glands uptake (LNCaP tumor-bearing mice [1]; 120 h post-injection): 0.001 ± 0.002 %IA/g | Liver uptake (LNCaP tumor-bearing mice [1]; 120 h post-injection): 0.079 ± 0.041 %IA/g | Lungs uptake (LNCaP tumor-bearing mice [1]; 120 h post-injection): 0.086 ± 0.076 %IA/g | Muscle uptake (LNCaP tumor-bearing mice [1]; 120 h post-injection): 0.012 ± 0.004 %IA/g | Pancreas uptake (LNCaP tumor-bearing mice [1]; 120 h post-injection): 0.020 ± 0.007 %IA/g | Salivary glands uptake (LNCaP tumor-bearing mice [1]; 120 h post-injection): 0.029 ± 0.007 %IA/g | Spleen uptake (LNCaP tumor-bearing mice [1]; 120 h post-injection): 0.129 ± 0.079 %IA/g | Stomach uptake (LNCaP tumor-bearing mice [1]; 120 h post-injection): 0.084 ± 0.041 %IA/g | Testes uptake (LNCaP tumor-bearing mice [1]; 120 h post-injection): 0.033 ± 0.012 %IA/g | Thyroid uptake (LNCaP tumor-bearing mice [1]; 120 h post-injection): 0.044 ± 0.015 %IA/g | Tumor uptake (LNCaP tumor-bearing mice [1]; 120 h post-injection): 16.39 ± 10.99 %IA/g | Tumor:Blood uptake ratio (LNCaP tumor-bearing mice [1]; 120 h post-injection): 780 ± 451 | Tumor:Muscle uptake ratio (LNCaP tumor-bearing mice [1]; 120 h post-injection): 1336 ± 566 | Tumor:Salivary gland uptake ratio (LNCaP tumor-bearing mice [1]; 120 h post-injection): 533 ± 218 | Excretion pathway (SPECT imaging) (LNCaP tumor-bearing mice [2]; mouse, in vivo): excreted mainly through the renal pathway; also recorded: excreted mainly via the renal pathway | Tumor size change in SPECT/CT images (LNCaP tumor-bearing mice [2]; ~37 MBq injected): tumors shrank from Day 1 to Day 5 | Median survival (LNCaP tumor-bearing mice [3]; 9.3 MBq injected): 52 days | Median survival (LNCaP tumor-bearing mice [3]; 18.5 MBq injected): 63 days | Median survival (LNCaP tumor-bearing mice [3]; 37 MBq injected): 88 days | Median survival (LNCaP tumor-bearing mice [3]; 74 MBq injected): 142 days | Median survival (LNCaP tumor-bearing mice [3]; 148 MBq injected): >180 days | Weight loss of treated mice (LNCaP tumor-bearing mice [3]; injected radioactivity as high as 148 MBq): did not observe any weight loss | Kinetics value ([4]; source organ Brain): 2.23E-03 MBq-h/MBq | Kinetics value ([4]; source organ Cortical bone): 7.60E-02 MBq-h/MBq | Kinetics value ([4]; source organ Heart contents): 1.94E-02 MBq-h/MBq | Kinetics value ([4]; source organ Kidneys): 2.41E-01 MBq-h/MBq | Kinetics value ([4]; source organ Large intestine): 9.24E-02 MBq-h/MBq | Kinetics value ([4]; source organ Liver): 3.91E-01 MBq-h/MBq | Kinetics value ([4]; source organ Lungs): 1.72E-02 MBq-h/MBq | Kinetics value ([4]; source organ Pancreas): 1.79E-02 MBq-h/MBq | Kinetics value ([4]; source organ Remainder of the body): 5.31E-01 MBq-h/MBq | Kinetics value ([4]; source organ Small intestine): 2.76E-01 MBq-h/MBq | Kinetics value ([4]; source organ Spleen): 2.30E-02 MBq-h/MBq | Kinetics value ([4]; source organ Stomach): 8.07E-03 MBq-h/MBq | Kinetics value ([4]; source organ Testes): 1.29E-02 MBq-h/MBq | Kinetics value ([4]; source organ Thyroid): 2.03E-03 MBq-h/MBq | Kinetics value ([4]; source organ Urinary bladder contents): 8.14E-01 MBq-h/MBq | Spleen uptake (LNCaP tumor-bearing mice [5]): 0.142 ± 0.062 %IA/g
